In patent publication US20120190566A1, “COMPOSITIONS AND METHODS FOR INHIBITING BIOFILMS” (priority 2009, published 2012):

Assays:
curli = curli (Escherichia coli, UniProt P28307); assay: Inhibition of curli assembly (FIG. 4); assay type: biochemical; conditions: in the presence of compound
Text: DAPH-12 (top) blocks tyrosine stacking, while Amphotericin B (bottom) binds to the edge strands and prevents amyloid assembly.

CsgA = CsgA (Escherichia coli, UniProt P28307); conditions: peptides immobilized on glass slide; recombinant CsgA ~2 μm, about 10% labeled with ALEXA-647; stringent wash
Sequence of CsgA (P28307 21-151): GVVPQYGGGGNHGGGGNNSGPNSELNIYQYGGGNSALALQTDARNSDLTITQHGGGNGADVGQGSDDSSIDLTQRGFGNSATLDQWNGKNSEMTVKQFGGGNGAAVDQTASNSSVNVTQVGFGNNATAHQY
Experimental: Peptide array synthesis, hybridization and quantification. […] Each peptide spot (250 μM in diameter) is printed with 3 drops of 0.5 nL of peptide solution at a concentration of approximately 2.5 μM using non-contact printing (JPT Peptide Technologies GmbH). The unreacted peptides are removed from the hydrogel slides, dried and then the slides are blocked with 3% BSA in PBST for 1 hr. CsgA proteins are denatured in 6 M GuHCl at 100° C. for approximately 20 minutes, diluted 125 times in PBST containing 3% BSA to a final concentration of 1-5 μM and a label ratio of 5-75%. A single peptide array is incubated with approximately 2-3 mL of diluted CsgA using an ATLAS™ hybridization chamber (BD Biociences) without mixing for a given period of time. The peptide arrays are then washed 5 times with 50 mL of 2% SDS for 30 minutes, 5 times with 50 mL of water, 3 times with 50 mL of methanol and then spun dry. […] The arrays are imaged using a GENEPIX® 4000A scanner and the median values for the peptide spots of two to three replicates are quantified using GENEPIX® Pro 6.0 software (Molecular Devices).
Denatured peptides were arrayed on reactive glass slides and their interaction with soluble, fluorescently labeled CsgA was studied.
A peptide library of CsgB sequences was generated and immobilized on a glass slide essentially as described above. […]

Sequence of curli (P28307 21-151): as above

Molecule | inhibition of curli assembly (curli) | nucleation of assembly of soluble, fluorescently labeled CsgA by arrayed peptides (CsgA)
COc1ccc(Nc2cc3c(cc2Nc2ccc(OC)cc2)C(=O)NC3=O)cc1 [DAPH-12] | inhibition of curli assembly | 
LRQGGSKLLAVVAQEGSSNRAK [SEQ ID NO: 1] |  | nucleate assembly of CsgA
GTQKTAIVVQRQSQMAIRVT [SEQ ID NO: 2] |  | nucleate assembly of CsgA
C[C@@H]1[C@H](O)[C@@H](C)/C=C/C=C/C=C/C=C/C=C/C=C/C=C/[C@H](O[C@@H]2O[C@H](C)[C@@H](O)[C@H](N)[C@@H]2O)C[C@@H]2O[C@](O)(C[C@@H](O)C[C@@H](O)[C@H](O)CC[C@@H](O)C[C@@H](O)CC(=O)O[C@H]1C)C[C@H](O)[C@H]2C(=O)O [Amphotericin B] | inhibition of curli assembly | 
